Experimental data published in patent US20120130060A1, “Modified antisense oligopeptides with anticancer properties and method of obtaining them” (priority 2010, published 2012).

What was measured:
[1] = ED50 and therapeutic index, comparative characteristics of Anticanum and Taxotere; assay type: in vivo
[2] = Average lethal intravenous dose in rats; conditions: both, rat, in vivo
From the text: The calculation of the average lethal dose was made according to B. M. Shtabskiy's methods with the use of the equation:
where: • X1 and X2 are the values of the two extreme of the three doses studied that have an effect on more or less than 50% of the animals; the third dose is the intermediate; • Y1 ? Y2 are the lethality percentages corresponding to doses X1 and X2; • ΣY— is the sum of the three doses studied; the number of doses used in the calculations is equal to 3.
Then d, the average margin of error for the average lethal dose was found through use of the Miller-Tainter formula:
N is the total number of animals in the groups in which even one animal died or survived, and the confidence ranges were established.

SMILES: CC(=O)O[C@@]12CO[C@@H]1C[C@H](O)[C@@]1(C)C(=O)[C@H](O)C3=C(C)[C@@H](OC(=O)[C@H](O)[C@@H](NC(=O)OC(C)(C)C)c4ccccc4)C[C@@](O)([C@@H](OC(=O)c4ccccc4)[C@H]21)C3(C)C [Taxotere]
- ED50 [1]: 0.035 mg/kg
- LD50 [2]: 0.12 mg/kg
